Data as given in patent US20170369470A1, “Cyclic Compounds and Uses Thereof” (Karyopharm Therapeutics Inc., priority 2014, published 2017).
pIC50: −log10 of the molar value.

What was measured:
Assay type in all cases: cell-based
3T3 cells = assay: MTT cell proliferation assay, 3T3 cells; details: NIH3T3; 3T3 fibroblast cells (Swiss mouse embryo); incubation approximately 64-72 hours
Procedure: (§1) The MTT cell proliferation assay was used to study the cytotoxic properties of the compounds. The assay was performed according to the method described by Roche Molecular Biochemicals, with minor modifications. The assay is based on the cleavage of the tetrazolium salt, MTT, in the presence of an electron-coupling reagent. The water-insoluble formazan salt produced must be solubilized in an additional step. Cells grown in a 96-well tissue culture plate were incubated with the MTT solution for approximately 4 hours. After this incubation period, a water-insoluble formazan dye formed. After solubilization, the formazan dye was quantitated using a scanning multi-well spectrophotometer (ELISA reader). […] The cells were seeded at 5,000-10,000 cells in each well of 96-well plate in 100 μL of fresh culture medium and were allowed to attach overnight. The stock solutions of the compounds were diluted in 100 μL cell culture medium to obtain eight concentrations of each test compound, ranging from 1 nM to 30 μM. […] All optical densities were measured at 490 nm using a Vmax Kinetic Microplate Reader (Molecular Devices). In most cases, the assay was performed in duplicate and the results were presented as a mean percent inhibition to the negative control±SE. The following formula was used to calculate the percent of inhibition: Inhibition (%)=(1−(ODo/OD))×100.
(§2) The compounds were tested against MS751, Z138 and 3T3 cells. The MS751 cell line is derived from a metastasis to lymph node of human cervix from a patient diagnosed with squameous cell carcinoma of the cervix. The Z138 cell line is a mature B-cell acute lymphoblastic leukemia cell line derived from a patient with chronic lumphocytic leukemia. 3T3 cells are standard fibroblast cells; they were originally isolated from Swiss mouse embryo tissue.

Z138 cells = assay: MTT cell proliferation assay, Z138 cells; details: Homo sapiens, Z-138; Z138 cells (mantle cell lymphoma line); incubation approximately 64-72 hours
Procedure: as §1, §2

MS751 cells = assay: MTT cell proliferation assay, MS751 cells; details: MS751 cells (human cervix squamous cell carcinoma metastasis); incubation approximately 64-72 hours; read-out: MTT Assay IC50 MS 751
Procedure: as §1, §2

SMILES | pIC50 (3T3 cells) | pIC50 (Z138 cells) | pIC50 (MS751 cells)
Nc1ccc(/C=C/C(=O)NCc2cc3cc(-c4ccc(C(=O)N5CCC(F)(F)C5)cn4)cc(C(F)(F)F)c3s2)cn1 [compound 510, (E)-3-(6-aminopyridin-3-yl)-N-((5-(5-(3,3-difluoropyrrolidine-1-carbonyl)pyridin-2-yl)-7-(trifluoromethyl)benzo[b]thiophen-2-yl)methyl)acrylamide] | < 5.00 | 5.30 to 6.00 | 5.30 to 6.00
Nc1ccc(/C=C/C(=O)NCc2cc3cc(-c4ccc(C(=O)N5CC6(C5)CC(F)(F)C6)cc4)cc(C(F)(F)F)c3s2)cn1 [compound 527, (E)-3-(6-aminopyridin-3-yl)-N-((5-(4-(6,6-difluoro-2-azaspiro[3.3]heptane-2-carbonyl)phenyl)-7-(trifluoromethyl)benzo[b]thiophen-2-yl)methyl)acrylamide] | < 5.00 | 5.30 to 6.00 | 5.30 to 6.00
Nc1ccc(/C=C/C(=O)NCc2cc3cc(-c4ccc(C(=O)N5CCC(O)(C(F)(F)F)C5)cn4)cc(C(F)(F)F)c3s2)cn1 (stereo not drawn) [compound 509, (E)-3-(6-aminopyridin-3-yl)-N-((5-(5-(3-hydroxy-3-(trifluoromethyl)pyrrolidine-1-carbonyl)pyridin-2-yl)-7-(trifluoromethyl)benzo[b]thiophen-2-yl)methyl)acrylamide] | < 5.00 | > 6.00 | 5.30 to 6.00
Nc1ccc(/C=C/C(=O)NCc2cc3cc(-c4ccc(C(=O)N5CC6(COC6)C5)cn4)cc(C(F)(F)F)c3s2)cn1 [compound 511, (E)-N-((5-(5-(2-oxa-6-azaspiro[3.3]heptane-6-carbonyl)pyridin-2-yl)-7-(trifluoromethyl)benzo[b]thiophen-2-yl)methyl)-3-(6-aminopyridin-3-yl)acrylamide] | < 5.00 | > 6.00 | > 6.00
CC1(C)COCCN1C(=O)c1ccc(-c2cc(C(F)(F)F)c3sc(CNC(=O)/C=C/c4ccc(N)nc4)cc3c2)nc1 [compound 508, (E)-3-(6-aminopyridin-3-yl)-N-((5-(5-(3,3-dimethylmorpholine-4-carbonyl)pyridin-2-yl)-7-(trifluoromethyl)benzo[b]thiophen-2-yl)methyl)acrylamide] | < 5.00 | 5.30 to 6.00 | 5.30 to 6.00
Nc1ccc(/C=C/C(=O)NCc2cc3cc(-c4ccc(C(=O)N5CC[C@H](F)C5)cc4)cc(C(F)(F)F)c3s2)cn1 [compound 525, (S,E)-3-(6-aminopyridin-3-yl)-N-((5-(4-(3-fluoropyrrolidine-1-carbonyl)phenyl)-7-(trifluoromethyl)benzo[b]thiophen-2-yl)methyl)acrylamide] | < 5.00 | 5.30 to 6.00 | 5.30 to 6.00
Nc1ccc(/C=C/C(=O)NCc2cc3cc(-c4ccc(C(=O)N5CCOCC5)cc4)cc(Cl)c3s2)cn1 [compound 500, (E)-3-(6-aminopyridin-3-yl)-N-((7-chloro-5-(4-(morpholine-4-carbonyl)phenyl)benzo[b]thiophen-2-yl)methyl)acrylamide] | < 5.00 | > 6.00 | > 6.00
Nc1ccc(/C=C/C(=O)NCc2cc3cc(-c4ccc(C(=O)N5CCC(F)(F)CC5)cn4)cc(C(F)(F)F)c3s2)cn1 [compound 503, (E)-3-(6-aminopyridin-3-yl)-N-((5-(5-(4,4-difluoropiperidine-1-carbonyl)pyridin-2-yl)-7-(trifluoromethyl)benzo[b]thiophen-2-yl)methyl)acrylamide] | < 5.00 | 5.30 to 6.00 | 5.30 to 6.00
Nc1ccc(/C=C/C(=O)NCCc2cc3cc(-c4ccc(C(=O)N5CCC(F)(F)CC5)cn4)cc(C(F)(F)F)c3s2)cn1 [compound 534, (E)-3-(6-aminopyridin-3-yl)-N-(2-(5-(5-(4,4-difluoropiperidine-1-carbonyl)pyridin-2-yl)-7-(trifluoromethyl)benzo[b]thiophen-2-yl)ethyl)acrylamide] | > 6.00 | > 6.00 | > 6.00
Nc1ccc(/C=C/C(=O)NCc2cc3cc(-c4ccc(C(=O)N5CC(F)(F)C5)cn4)cc(C(F)(F)F)c3s2)cn1 [compound 512, (E)-3-(6-aminopyridin-3-yl)-N-((5-(5-(3,3-difluoroazetidine-1-carbonyl)pyridin-2-yl)-7-(trifluoromethyl)benzo[b]thiophen-2-yl)methyl)acrylamide] | 5.00 to 5.30 | > 6.00 | 5.30 to 6.00
Nc1ccc(/C=C/C(=O)NCc2cc3cc(-c4ccc(C(=O)N5CC6(C5)CC(F)(F)C6)cn4)cc(C(F)(F)F)c3s2)cn1 [compound 515, (E)-3-(6-aminopyridin-3-yl)-N-((5-(5-(6,6-difluoro-2-azaspiro[3.3]heptane-2-carbonyl)pyridin-2-yl)-7-(trifluoromethyl)benzo[b]thiophen-2-yl)methyl)acrylamide] | < 5.00 | > 6.00 | > 6.00
Nc1ccc(/C=C/C(=O)NCc2cc3cc(-c4ccc(C(=O)N5CC6(COC6)C5)cc4)cc(C(F)(F)F)c3s2)cn1 [compound 519, (E)-N-((5-(4-(2-oxa-6-azaspiro[3.3]heptane-6-carbonyl)phenyl)-7-(trifluoromethyl)benzo[b]thiophen-2-yl)methyl)-3-(6-aminopyridin-3-yl)acrylamide] | < 5.00 | > 6.00 | > 6.00
Nc1ccc(/C=C/C(=O)NCc2cc3cc(-c4ccc(C(=O)N5CCC(F)(F)CC5)cn4)cc(C(F)(F)F)c3[nH]2)cn1 [compound 501, (E)-3-(6-aminopyridin-3-yl)-N-((5-(5-(4,4-difluoropiperidine-1-carbonyl)pyridin-2-yl)-7-(trifluoromethyl)-1H-indol-2-yl)methyl)acrylamide] | < 5.00 | < 5.00 | < 5.00
CC1(F)CCN(C(=O)c2ccc(-c3cc(C(F)(F)F)c4sc(CNC(=O)/C=C/c5ccc(N)nc5)cc4c3)nc2)C1 (stereo not drawn) [compound 507, (E)-3-(6-aminopyridin-3-yl)-N-((5-(5-(3-fluoro-3-methylpyrrolidine-1-carbonyl)pyridin-2-yl)-7-(trifluoromethyl)benzo[b]thiophen-2-yl)methyl)acrylamide] | < 5.00 | 5.30 to 6.00 | 5.30 to 6.00
CC1(O)CCN(C(=O)c2ccc(-c3cc(C(F)(F)F)c4sc(CNC(=O)/C=C/c5ccc(N)nc5)cc4c3)nc2)CC1 [compound 516, (E)-3-(6-aminopyridin-3-yl)-N-((5-(5-(4-hydroxy-4-methylpiperidine-1-carbonyl)pyridin-2-yl)-7-(trifluoromethyl)benzo[b]thiophen-2-yl)methyl)acrylamide] | < 5.00 | > 6.00 | 5.30 to 6.00
CC1(C)COCCN1C(=O)c1ccc(-c2cc(C(F)(F)F)c3sc(CNC(=O)/C=C/c4ccc(N)nc4)cc3c2)cc1 [compound 523, (E)-3-(6-aminopyridin-3-yl)-N-((5-(4-(3,3-dimethylmorpholine-4-carbonyl)phenyl)-7-(trifluoromethyl)benzo[b]thiophen-2-yl)methyl)acrylamide] | < 5.00 | 5.30 to 6.00 | 5.30 to 6.00
Nc1ccc(/C=C/C(=O)NCc2nc3cc(-c4ccc(C(=O)N5CCC(F)(F)CC5)cc4)cc(C(F)(F)F)c3s2)cn1 [compound 533, (E)-3-(6-aminopyridin-3-yl)-N-((5-(4-(4,4-difluoropiperidine-1-carbonyl)phenyl)-7-(trifluoromethyl)benzo[d]thiazol-2-yl)methyl)acrylamide] | < 5.00 | > 6.00 | > 6.00
Nc1ccc(/C=C/C(=O)NCc2cc3cc(-c4ccc(C(=O)N5CCC(F)(F)CC5)cc4)cc(C(F)(F)F)c3s2)cn1 [compound 518, (E)-3-(6-aminopyridin-3-yl)-N-((5-(4-(4,4-difluoropiperidine-1-carbonyl)phenyl)-7-(trifluoromethyl)benzo[b]thiophen-2-yl)methyl)acrylamide] | < 5.00 | 5.30 to 6.00 | 5.30 to 6.00
Nc1ccc(/C=C/C(=O)NCc2cc3cc(-c4ccc(C(=O)N5CCOCC5)cn4)cc(C(F)(F)F)c3s2)cn1 [compound 506, (E)-3-(6-aminopyridin-3-yl)-N-((5-(5-(morpholine-4-carbonyl)pyridin-2-yl)-7-(trifluoromethyl)benzo[b]thiophen-2-yl)methyl)acrylamide] | < 5.00 | 5.30 to 6.00 | 5.30 to 6.00
Cn1c(CNC(=O)/C=C/c2ccc(N)nc2)cc2cc(-c3ccc(C(=O)N4CCC(F)(F)CC4)cn3)cc(C(F)(F)F)c21 [compound 502, (E)-3-(6-aminopyridin-3-yl)-N-((5-(5-(4,4-difluoropiperidine-1-carbonyl)pyridin-2-yl)-1-methyl-7-(trifluoromethyl)-1H-indol-2-yl)methyl)acrylamide] | < 5.00 | < 5.00 | < 5.00
